# In patent US9512107B2, “Therapeutically active compositions and their methods of use” (Agios Pharmaceuticals, Inc., priority 2012, dated 2016):
# Key:
# IDH2 R140Q = biological target: T1, IDH2 R140Q (Homo sapiens, UniProt P48735, R140Q); assay: IDH2 R140Q enzymatic assay (cofactor depletion, similar format); format: biochemical; details: for IC50: read-out: Enz R140Q
# T1 sequence (P48735 40-452 R140Q): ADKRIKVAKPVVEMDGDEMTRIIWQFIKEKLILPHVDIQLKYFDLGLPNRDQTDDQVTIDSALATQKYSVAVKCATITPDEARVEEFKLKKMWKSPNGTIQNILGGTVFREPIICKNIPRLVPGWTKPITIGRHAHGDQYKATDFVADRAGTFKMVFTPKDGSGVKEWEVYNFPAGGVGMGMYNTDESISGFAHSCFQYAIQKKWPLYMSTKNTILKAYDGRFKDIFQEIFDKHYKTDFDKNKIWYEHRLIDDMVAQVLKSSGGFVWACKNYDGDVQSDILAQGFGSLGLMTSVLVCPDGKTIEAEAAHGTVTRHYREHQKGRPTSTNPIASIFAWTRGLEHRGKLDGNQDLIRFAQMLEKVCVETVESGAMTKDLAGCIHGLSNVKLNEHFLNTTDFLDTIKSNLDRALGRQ
# Method: [The source words this procedure for another variant and says it was used here with some conditions changed.] Compounds are assayed for IDH2 R172K inhibitory activity through a cofactor depletion assay. […] The reaction is terminated by the addition of a second enzyme, diaphorase, and a corresponding substrate, resazurin. Diaphorase reduces resazurin to the highly fluorescent resorufin with the concomitant oxidation of NADPH to NADP, both halting the IDH2 reaction by depleting the available cofactor pool and facilitating quantitation of the amount of cofactor remaining after a specific time period through quantitative production of an easily detected fluorophore.
# The test compound is then incubated for one hour at room temperature with the enzyme; before starting the IDH2 reaction with the addition of 10 μl of substrate mix containing 50 μM NADPH and 6.3 mM α-KG in the buffer described above. After a further one hour of incubation at room temperature, the reaction is halted and the remaining NADPH measured through conversion of resazurin to resorufin by the addition of 25 μl Stop Mix (36 μg/ml diaphorase enzyme and 60 μM resazurin; in buffer).
# [1] = test system: U87MG pLVX-IDH2 R140Q-neo cells; assay: U87MG pLVX-IDH2 R140Q-neo cell based assay, 2-HG in media by LC-MS at 48 hours; details: for IC50: Homo sapiens, U-87 MG
# Method: U87MG pLVX-IDH2 R140Q-neo cells are grown in T125 flasks in DMEM containing 10% FBS, 1× penicillin/streptomycin and 500 μg/mL G418. They are harvested by trypsin and seeded into 96 well white bottom plates at a density of 5000 cell/well in 100 μl/well in DMEM with 10% FBS. No cells are plated in columns 1 and 12. Cells are incubated overnight at 37° C. in 5% CO2. The next day compounds are made up at 2× concentration and 100 ul are added to each cell well. The final concentration of DMSO is 0.2% and the DMSO control wells are plated in row G. The plates are then placed in the incubator for 48 hours. At 48 hours, 100 ul of media is removed from each well and analyzed by LC-MS for 2-HG concentrations. The cell plate is placed back in the incubator for another 24 hours. At 72 hours post compound addition, 10 mL/plate of Promega Cell Titer Glo reagent is thawed and mixed. The cell plate is removed from the incubator and allowed to equilibrate to room temperature. Then 100 ul of reagent is added to each well of media. The cell plate is then placed on an orbital shaker for 10 minutes and then allowed to sit at room temperature for 20 minutes. The plate is then read for luminescence with an integration time of 500 ms to determine compound effects on growth inhibition.
Compound,IC50 (IDH2 R140Q) [nM],IC50 [1] [nM],Enz R140Q (IDH2 R140Q),Cell R140Q [1]
"N#CC1(Nc2nc(Nc3ccncc3)nc(-c3ccccc3)n2)CCC1 [Compound 284, 1-(4-phenyl-6-(pyridin-4-ylamino)-1,3,5-triazin-2-ylamino)cyclobutanecarbonitrile]",100 to 1000,100 to 1000,–,–
"Cc1cc(Nc2nc(NC(C)C)nc(-c3ccccc3)n2)ccn1 [Compound 288, N^2-isopropyl-N^4-(2-methylpyridin-4-yl)-6-phenyl-1,3,5-triazine-2,4-diamine]",< 100,< 100,–,–
"CC(C)Nc1nc(Nc2ccc(Cl)nc2)nc(-c2ccccc2)n1 [Compound 289, N^2-(6-chloropyridin-3-yl)-N^4-isopropyl-6-phenyl-1,3,5-triazine-2,4-diamine]",< 100,100 to 1000,–,–
"CC(C)Nc1nc(Nc2ccccc2)nc(-c2cccc(N)n2)n1 [Compound 290, 6-(6-aminopyridin-2-yl)-N^2-isopropyl-N^4-phenyl-1,3,5-triazine-2,4-diamine]",100 to 1000,< 100,–,–
"CCC(CO)Nc1nc(Nc2ccncc2)nc(-c2ccccc2)n1 (centres unmarked) [Compound 291, 2-(4-phenyl-6-(pyridin-4-ylamino)-1,3,5-triazin-2-ylamino)butan-1-ol]",–,–,No Fit,No Fit
"CC(C)Nc1nc(Nc2ccncc2F)nc(-c2ccccc2)n1 [Compound 292, N^2-(3-fluoropyridin-4-yl)-N^4-isopropyl-6-phenyl-1,3,5-triazine-2,4-diamine]",–,–,No Fit,No Fit
"CC(C)Nc1nc(Nc2ccnc(N(C)C)c2)nc(-c2ccccc2)n1 [Compound 293, N^2-(2-(dimethylamino)pyridin-4-yl)-N^4-isopropyl-6-phenyl-1,3,5-triazine-2,4-diamine]",< 100,< 100,–,–
"OCCNc1nc(Nc2ccncc2)nc(-c2ccccc2)n1 [Compound 294, 2-(4-phenyl-6-(pyridin-4-ylamino)-1,3,5-triazin-2-ylamino)ethanol]",–,–,No Fit,No Fit
"c1ccc(-c2nc(Nc3ccncc3)nc(N[C@@H]3C[C@@H]4CC[C@H]3C4)n2)cc1 [Compound 295, N^2-((1S,2R,4R)-bicyclo[2.2.1]heptan-2-yl)-6-phenyl-N^4-(pyridin-4-yl)-1,3,5-triazine-2,4-diamine]",< 100,< 100,–,–
"c1ccc(Nc2nc(N[C@@H]3C[C@@H]4CC[C@H]3C4)nc(-c3ccccc3)n2)cc1 [Compound 296, N^2-((1S,2R,4R)-bicyclo[2.2.1]heptan-2-yl)-N^4,6-diphenyl-1,3,5-triazine-2,4-diamine]",100 to 1000,< 100,–,–
"c1ccc(-c2nc(Nc3ccncc3)nc(NC3C4COCC43)n2)cc1 (centres unmarked) [Compound 297, N^2-(3-oxabicyclo[3.1.0]hexan-6-yl)-6-phenyl-N^4-(pyridin-4-yl)-1,3,5-triazine-2,4-diamine]",< 100,< 100,–,–
"CC(C)Nc1nc(Nc2ccnc(N3CCOCC3)c2)nc(-c2ccccc2)n1 [Compound 298, N^2-isopropyl-N^4-(2-morpholinopyridin-4-yl)-6-phenyl-1,3,5-triazine-2,4-diamine]",< 100,< 100,–,–
"CC(C)Nc1nc(Nc2ccnc(N3CCC3)c2)nc(-c2ccccc2)n1 [Compound 299, N^2-(2-(azetidin-1-yl)pyridin-4-yl)-N^4-isopropyl-6-phenyl-1,3,5-triazine-2,4-diamine]",< 100,100 to 1000,–,–
"c1ccc(-c2nc(NCC3COC3)nc(Nc3ccncc3)n2)cc1 [Compound 300, N^2-(oxetan-3-ylmethyl)-6-phenyl-N^4-(pyridin-4-yl)-1,3,5-triazine-2,4-diamine]",100 to 1000,100 to 1000,–,–
"CC(C)Nc1cc(Nc2nc(NC(C)C)nc(-c3ccccc3)n2)ccn1 [Compound 301, N^2-isopropyl-N^4-(2-(isopropylamino)pyridin-4-yl)-6-phenyl-1,3,5-triazine-2,4-diamine]",100 to 1000,< 100,–,–
"CNc1cc(Nc2nc(NC(C)C)nc(-c3ccccc3)n2)ccn1 [Compound 302, N^2-isopropyl-N^4-(2-(methylamino)pyridin-4-yl)-6-phenyl-1,3,5-triazine-2,4-diamine]",< 100,100 to 1000,–,–

Compound,IC50 (IDH2 R140Q) [nM],IC50 [1] [nM],Enz R140Q (IDH2 R140Q),Cell R140Q [1]
"CNc1ccc(Nc2nc(NC(C)C)nc(-c3ccccc3)n2)cn1 [Compound 303, N^2-isopropyl-N^4-(6-(methylamino)pyridin-3-yl)-6-phenyl-1,3,5-triazine-2,4-diamine]",1000 to 10000,–,–,No Fit
"OC1CCCC(Nc2nc(Nc3ccncc3)nc(-c3ccccc3)n2)C1 (centres unmarked) [Compound 304, 3-(4-phenyl-6-(pyridin-4-ylamino)-1,3,5-triazin-2-ylamino)cyclohexanol]",1000 to 10000,–,–,No Fit
"COC1CC(Nc2nc(Nc3ccncc3)nc(-c3ccccc3)n2)C1 (centres unmarked) [Compound 305, N^2-(3-methoxycyclobutyl)-6-phenyl-N^4-(pyridin-4-yl)-1,3,5-triazine-2,4-diamine]",> 10000,–,–,No Fit
CS(=O)(=O)c1cccc(Nc2nc(NC3CCOCC3)nc(-c3ccccc3)n2)c1 [Compound 306],100 to 1000,< 100,–,–
"CC(C)Nc1nc(Nc2cnn(C)c2)nc(-c2ccccc2)n1 [Compound 308, N^2-isopropyl-N^4-(1-methyl-1H-pyrazol-4-yl)-6-phenyl-1,3,5-triazine-2,4-diamine]",< 100,100 to 1000,–,–
"CC(C)Nc1nc(Nc2cnoc2)nc(-c2ccccc2)n1 [Compound 309, N^2-isopropyl-N^4-(isoxazol-4-yl)-6-phenyl-1,3,5-triazine-2,4-diamine]",< 100,< 100,–,–
"Cc1cc(Nc2nc(NC(C)C)nc(-c3ccccc3)n2)cc(C)n1 [Compound 310, N^2-(2,6-dimethylpyridin-4-yl)-N^4-isopropyl-6-phenyl-1,3,5-triazine-2,4-diamine]",100 to 1000,< 100,–,–
"CC(C)Nc1nc(Nc2ccc(OCC3CC3)nc2)nc(-c2ccccc2)n1 [Compound 311, N^2-(6-(cyclopropylmethoxy)pyridin-3-yl)-N^4-isopropyl-6-phenyl-1,3,5-triazine-2,4-diamine]",100 to 1000,100 to 1000,–,–
"CC(C)Nc1nc(Nc2ccc(OC(C)C)nc2)nc(-c2ccccc2)n1 [Compound 312, N^2-(6-isopropoxypyridin-3-yl)-N^4-isopropyl-6-phenyl-1,3,5-triazine-2,4-diamine]",100 to 1000,1000 to 10000,–,–
"CC(C)Nc1nc(Nc2cncs2)nc(-c2ccccc2)n1 [Compound 313, N^2-isopropyl-6-phenyl-N^4-(thiazol-5-yl)-1,3,5-triazine-2,4-diamine]",< 100,< 100,–,–
"CC(C)Nc1nc(Nc2ccncc2C(F)(F)F)nc(-c2ccccc2)n1 [Compound 314, N^2-isopropyl-6-phenyl-N^4-(3-(trifluoromethyl)pyridin-4-yl)-1,3,5-triazine-2,4-diamine]",1000 to 10000,–,–,No Fit
"CC(C)Nc1nc(Nc2ccnc(C3CC3)c2)nc(-c2ccccc2)n1 [Compound 315, N^2-(2-cyclopropylpyridin-4-yl)-N^4-isopropyl-6-phenyl-1,3,5-triazine-2,4-diamine]",< 100,< 100,–,–
"CC(C)Nc1nc(Nc2ccc(C3CC3)nc2)nc(-c2ccccc2)n1 [Compound 316, N^2-(6-cyclopropylpyridin-3-yl)-N^4-isopropyl-6-phenyl-1,3,5-triazine-2,4-diamine]",100 to 1000,100 to 1000,–,–
"CS(=O)(=O)c1cccc(Nc2nc(NC3CCC3)nc(-c3ccccc3F)n2)c1 [Compound 317, N^2-cyclobutyl-6-(2-fluorophenyl)-N^4-(3-(methylsulfonyl)phenyl)-1,3,5-triazine-2,4-diamine]",< 100,< 100,–,–
"Fc1cncc(Nc2nc(NC3CCC3)nc(-c3ccccc3F)n2)c1 [Compound 318, N-Cyclobutyl-6-(2-fluoro-phenyl)-N′-(5-fluoro-pyridin-3-yl)-[1,3,5]triazine-2,4-diamine]",< 100,< 100,–,–
